Results as given in PMC6079302, “Investigating the Mechanism of Action of Diketopiperazines Inhibitors of the Burkholderia cenocepacia Quorum Sensing Synthase CepI: A Site-Directed Mutagenesis Study” (Frontiers in Pharmacology, 2018).

How the values were obtained:
CepI Q46R mutant = biological target: T1, CepI Q46R mutant (Burkholderia cenocepacia, UniProt B4EMD2, Q46R); test: CepI activity assay (DCPIP), IC50 determination, Q46R mutant; type: biochemical
T1 sequence (B4EMD2 1-202 Q46R): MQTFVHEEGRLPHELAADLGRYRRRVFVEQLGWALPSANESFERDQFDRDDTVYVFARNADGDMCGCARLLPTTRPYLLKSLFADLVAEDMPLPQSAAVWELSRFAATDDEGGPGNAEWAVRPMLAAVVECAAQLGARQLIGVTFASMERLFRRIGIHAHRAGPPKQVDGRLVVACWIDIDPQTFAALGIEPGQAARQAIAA

CepI E40Q mutant = biological target: T2, CepI E40Q mutant (Burkholderia cenocepacia, UniProt B4EMD2, E40Q); test: CepI activity assay (DCPIP), IC50 determination, E40Q mutant; type: biochemical
T2 sequence (B4EMD2 1-202 E40Q): T1 sequence (B4EMD2 1-202 Q46R)

B. cenocepacia J2315 = test: Proteomic analysis (2-DE, LC-MS/MS) of treated cells compared with the ΔcepI strain; type: cell-based, Burkholderia cenocepacia; conditions: J2315 cells treated with 25 μM 8b, compared with untreated J2315; same as ΔcepI profile
Protocol: Burkholderia cenocepacia ΔcepI ([Udine et al., 2013]) and J2315 (with or without 25 μM of 8b compound) were grown in 10 ml of LB medium until OD600 nm > 2. Cells were then harvested, resuspended in 0.2 ml of Tris-HCl 50 mM, pH 7.5, disrupted by sonication, and centrifuged at 12,000 rpm for 1 h at 4°C.
The amount of proteins present in the supernatant was quantified by bicinchoninic acid method ([Smith et al., 1985]), then 300 μg were precipitated with 10% (v/v) trichloroacetic acid. The obtained protein pellet was dissolved in 125 μL of rehydration buffer (8 M urea, 4% CHAPS (w/v), 65 mM DTE, 0.8% carrier ampholytes (v/v) and 0.5% bromophenol blue) and loaded onto 7 cm IPG strips, with nonlinear pH 3–10 gradient range (GE Healthcare), and strips rehydrated for 1 h at 20°C. The first-dimensional IEF was carried out at 15°C using an Ettan IPGphor system (GE Healthcare), by applying 30 V for 8 h, 120 V for 1 h, 500 V for 0.5 h, 1000 V for 0.5 h and 5000 V for 6 h, for a total of 29–30 kVh. […] Digital images of stained gels were acquired using VersaDoc Imaging Model 3000 (BioRad) and then subjected to quali/quantitative analysis using the PD Quest (BioRad) version 8.0.1 software. […] The software then determined the amount of spots present and calculated their intensity by applying the following algorithm: peak value (ODs/image units) ^∗σx^∗σy (standard deviations in x and y). […]

CepI wild type = biological target: T3, CepI wild type (Burkholderia cenocepacia, UniProt B4EMD2); test: CepI activity assay (DCPIP), IC50 determination, wild type enzyme; type: biochemical; conditions: 70 μM C8-ACP, 40 μM SAM, 4 μM CepI, read-out: compound 8b IC50
T3 sequence (B4EMD2 1-202): T1 sequence (B4EMD2 1-202 Q46R)
Protocol: Wild type and mutant CepI were expressed in Escherichia coli BL21(DE3) cells and purified as previously described ([Scoffone et al., 2016]).
CepI activity was determined according to [Christensen et al. (2013)]. Reaction mixtures contained 50 mM 4-(2-hydroxyethyl)-1-piperazineethanesulfonic acid (HEPES) pH 7.5, 0.005% Nonidet P-40, 0.13 mM 2,6-dichlorophenylindophenol (DCPIP), 70 μM Octanoyl-ACP (C8-ACP, prepared as reported previously) ([Quadri et al., 1998]; [Cronan and Thomas, 2009]), 40 μM S-adenosyl methionine (SAM), 4 μM CepI.
IC50 was determined measuring the enzyme activity in presence of different concentrations of compound, and values determined with the following equation ([Copeland, 2000]), where A[I] is the enzyme activity at inhibitor concentration [I] and A[0] is the enzyme activity without inhibitor.

CepI S41A mutant = biological target: T4, CepI S41A mutant (Burkholderia cenocepacia, UniProt B4EMD2, S41A); test: CepI activity assay (DCPIP), IC50 determination, S41A mutant; type: biochemical
T4 sequence (B4EMD2 1-202 S41A): T1 sequence (B4EMD2 1-202 Q46R)

CepI R24Q mutant = biological target: T5, CepI R24Q mutant (Burkholderia cenocepacia, UniProt B4EMD2, R24Q); test: CepI activity assay (DCPIP), IC50 determination, R24Q mutant; type: biochemical
T5 sequence (B4EMD2 1-202 R24Q): T1 sequence (B4EMD2 1-202 Q46R)

CepI S41R mutant = biological target: T6, CepI S41R mutant (Burkholderia cenocepacia, UniProt B4EMD2, S41R); test: CepI activity assay (DCPIP), IC50 determination, S41R mutant; type: biochemical; conditions: compound 8b IC50, CepI S41R; 70 μM C8-ACP, 40 μM SAM, 4 μM CepI
T6 sequence (B4EMD2 1-202 S41R): T1 sequence (B4EMD2 1-202 Q46R)

## O=C1C=CC(=O)C(C2NC(=O)[C@H](Cc3ccccc3)NC2=O)=C1 (stereo partly drawn) [8b, (3S)-3-Benzyl-6-(3,6-dioxocyclohexa-1,4-dien-1-yl)piperazine-2,5-dione]
CepI Q46R mutant
  IC50: 19.2 ± 3.5 µM
CepI Q46R mutant; CepI Q46R, 70 μM C8-ACP, 40 μM SAM, 4 μM CepI
  compound 8b IC50: comparable to wild type CepI
CepI E40Q mutant
  IC50: 53 ± 2.6 µM
B. cenocepacia J2315
  density of the 2-DE protein spot of the giant cable pilus protein CblA: higher density
CepI wild type
  IC50: 7.2 ± 0.2 µM
CepI S41A mutant
  IC50: 113 ± 11 µM
CepI R24Q mutant
  IC50: 147 ± 17 µM
CepI S41R mutant
  IC50: 1070 ± 75 µM
